Values quoted from earlier work, collected in patent US20120009125A1, “APOE4 AND APOJ BIOMARKER-BASED PREVENTION AND TREATMENT OF DEMENTIA” (priority 2010, published 2012).
Read-outs that look alike come from different tables or passages of the source.

Experiments:
[1] = test system: Hsp70, Hsp90, and Hsp105; conditions: cell model
[2] = test system: amyloid oligomer
[3] = test system: HSPs; conditions: oral administration
[4] = test system: cell model

CC(=O)CC/C=C(\C)CC/C=C(\C)CC/C=C(\C)CCC=C(C)C [GGA, (9E;13E)-6,10,14,18-tetramethyl-5,9,13,17-nonadecatetraen-2-one]
solubility in water: practically insoluble
levels of Hsp70, Hsp90, and Hsp105 [1]: increased
amyloid oligomer levels and aggregates [2]: reduces
amyloid oligomer levels and aggregates ([2]; oral administration): reduces
expression of HSPs in the central nervous system [3]: up-regulated
cell death [4]: inhibited
